According to PMC4961696, “An Enantiomer of an Oral Small-Molecule TSH Receptor Agonist Exhibits Improved Pharmacologic Properties” (Frontiers in Endocrinology, 2016):

How the values were obtained:
TSH receptor (TSHR) [1] = target: T1, TSH receptor (TSHR) (Homo sapiens, UniProt P16473); assay: cAMP production in HEK293 cells stably expressing TSHR (agonist dose-response); format: cell-based
TSH receptor (TSHR) [2] = target: T1, TSH receptor (TSHR); assay: cAMP production in HEK293 cells stably expressing TSHR (agonist dose-response); inactive in HEK-LHR and HEK-FSHR cells; format: cell-based

T1 sequence (P16473 21-764): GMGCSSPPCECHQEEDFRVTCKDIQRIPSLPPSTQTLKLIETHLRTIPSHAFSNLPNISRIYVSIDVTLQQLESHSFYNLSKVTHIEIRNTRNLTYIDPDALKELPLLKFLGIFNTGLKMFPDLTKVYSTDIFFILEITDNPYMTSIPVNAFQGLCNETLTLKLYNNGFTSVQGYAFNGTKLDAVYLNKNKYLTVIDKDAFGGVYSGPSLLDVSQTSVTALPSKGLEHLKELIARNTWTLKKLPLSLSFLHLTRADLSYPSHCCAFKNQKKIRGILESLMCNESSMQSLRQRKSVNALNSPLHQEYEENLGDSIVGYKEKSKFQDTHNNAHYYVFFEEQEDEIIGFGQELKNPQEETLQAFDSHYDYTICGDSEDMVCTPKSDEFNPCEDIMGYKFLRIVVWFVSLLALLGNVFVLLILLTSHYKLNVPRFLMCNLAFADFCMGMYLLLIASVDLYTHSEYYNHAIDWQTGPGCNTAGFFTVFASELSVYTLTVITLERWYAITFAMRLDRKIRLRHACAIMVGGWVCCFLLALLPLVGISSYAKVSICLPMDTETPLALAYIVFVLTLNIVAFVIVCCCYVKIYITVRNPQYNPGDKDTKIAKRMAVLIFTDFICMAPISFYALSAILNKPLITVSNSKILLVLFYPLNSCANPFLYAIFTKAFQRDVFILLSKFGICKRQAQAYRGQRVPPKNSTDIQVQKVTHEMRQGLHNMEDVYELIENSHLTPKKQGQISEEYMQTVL

SMILES: COc1ccc(C2Nc3cccc(O)c3C(=O)N2Cc2ccccc2)cc1COc1ccc(NC(C)=O)cc1 (racemic) [C2]
- EC50 (TSH receptor (TSHR) [1]): 46 nM

SMILES: COc1ccc([C@@H]2Nc3cccc(O)c3C(=O)N2Cc2ccccc2)cc1COc1ccc(NC(C)=O)cc1 [E1]
- EC50 (TSH receptor (TSHR) [2]): 217 nM

SMILES: COc1ccc([C@H]2Nc3cccc(O)c3C(=O)N2Cc2ccccc2)cc1COc1ccc(NC(C)=O)cc1 [E2]
- EC50 (TSH receptor (TSHR) [2]): 18 nM
